Drawing on BindingDB's records for doi:10.1021/bi00331a002 (University of Minnesota, 1985), this text covers Ki for eight compounds.

A value given as a limit tells only on which side of the number the result lay.

The experiment addresses Glutamate receptor ionotropic, NMDA 1 (Rattus norvegicus, UniProt P35439).

The term Ki denotes a dissociation constant, usually derived from enzyme kinetics or from competition with a known ligand. `N[C@H](CC(=O)O)C(=O)O` yielded a Ki above 10 µM.

Compound `N[C@@H](CCP(=O)(O)O)C(=O)O` [2-Amino-4-phosphono-butyric acid] yielded a Ki of 1.5 µM. This counts as single-digit micromolar.

In turn, `N[C@@H](Cn1oc(=O)[nH]c1=O)C(=O)O` [2-amino-3-(3,5-dioxo[1,2,4]oxadiazolidin-2-yl)propionic acid] came in with a Ki of 0.26 µM.

With `CP(=O)(O)CCC(N)C(=O)O` (stereo not drawn) [2-amino-4-(methylphosphino) butanoic acid], the Ki came to 3.8 µM.

The compound `N[C@H](CCCP(=O)(O)O)C(=O)O` [CB3371309] had a Ki above 10 µM.

With `N[C@H](CCP(=O)(O)O)C(=O)O` [D-AP4], the Ki was above 10 µM.

Regarding `N[C@@H](CC(=O)O)C(=O)O` [L-Aspartic acid, 2], the Ki came out at 8 µM.

The compound `CC(C[C@H](N)C(=O)O)P(=O)(O)O` (stereo partly drawn) [gamma-methyl-APB] returned a Ki of 8.6 µM.
